Measurements reported in PubChem BioAssay AID248 (DTP/NCI, 2004).
Several values for one entry are separate records, joined by “and”; a condition that tells them apart may be missing. Identical values can stand only once. Inconclusive results and toxic doses are left out. Cut-off read from the data, not from the text of the source: active = T/C of 150% or more; inactive = T/C below 125%.

System: L1210 leukemia ip in BDF1 mice, survival T/C
Experiment: NCI In Vivo Anticancer Drug Screen. Data for tumor model L1210 Leukemia (intraperitoneal) in B6D2F1 (BDF1) mice
Settings: endpoint: mean survival time, higher = longer survival
Outline: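 Antitumor effect is assessed in tumor-bearing animals. Survival in the compound arm is compared with a vehicle-dosed control arm and expressed as their quotient.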

[1] = dose: 100.0 mg/kg/injection, schedule: Q01DX001 (ip), vehicle: saline
[2] = dose: 200.0 mg/kg/injection, schedule: Q01DX001 (ip), vehicle: saline
[3] = dose: 25.0 mg/kg/injection, schedule: Q01DX009 (ip), vehicle: saline
[4] = dose: 50.0 mg/kg/injection, schedule: Q01DX009 (ip), vehicle: saline
[5] = dose: 100.0 mg/kg/injection, schedule: Q04DX002 (ip), vehicle: Klucel (hydroxypropylcellulose) (HPC)
[6] = dose: 200.0 mg/kg/injection, schedule: Q04DX002 (ip), vehicle: Klucel (hydroxypropylcellulose) (HPC)
[7] = dose: 50.0 mg/kg/injection, schedule: Q04DX002 (ip), vehicle: Klucel (hydroxypropylcellulose) (HPC)
[8] = dose: 100.0 mg/kg/injection, schedule: Q01DX009 (ip), vehicle: saline
[9] = dose: 25.0 mg/kg/injection, schedule: Q01DX009 (ip), vehicle: Klucel (hydroxypropylcellulose) (HPC)
[10] = dose: 50.0 mg/kg/injection, schedule: Q01DX009 (ip), vehicle: Klucel (hydroxypropylcellulose) (HPC)
[11] = dose: 100.0 mg/kg/injection, schedule: Q01DX009 (ip), vehicle: Klucel (hydroxypropylcellulose) (HPC)
[12] = dose: 100.0 mg/kg/injection, schedule: Q01DX009 (ip), vehicle: saline with Tween-80
[13] = dose: 200.0 mg/kg/injection, schedule: Q01DX009 (ip), vehicle: saline with Tween-80
[14] = dose: 400.0 mg/kg/injection, schedule: Q01DX009 (ip), vehicle: saline with Tween-80
[15] = dose: 100.0 mg/kg/injection, schedule: Q04DX003 (ip), vehicle: Klucel (hydroxypropylcellulose) (HPC)
[16] = dose: 200.0 mg/kg/injection, schedule: Q04DX003 (ip), vehicle: Klucel (hydroxypropylcellulose) (HPC)
[17] = dose: 100.0 mg/kg/injection, schedule: Q04DX003 (ip), vehicle: saline with Tween-80
[18] = dose: 200.0 mg/kg/injection, schedule: Q04DX003 (ip), vehicle: saline with Tween-80

Measured: T/C

CCCCN(C)C(=S)S[Te](SC(=S)N(C)CCCC)(SC(=S)N(C)CCCC)SC(=S)N(C)CCCC
inactive: [1] 95 % of control | [2] 90 % of control | dose: 400.0 mg/kg/injection, schedule: Q01DX001 (ip), vehicle: saline 93 % of control | dose: 800.0 mg/kg/injection, schedule: Q01DX001 (ip), vehicle: saline 106 % of control | dose: 1600.0 mg/kg/injection, schedule: Q01DX001 (ip), vehicle: saline 104 % of control

CCCNC(C)(C)C(SSSC(c1cccs1)C(C)(C)NCCC)c1cccs1 (configuration not stated)
inactive: dose: 12.5 mg/kg/injection, schedule: Q01DX009 (ip), vehicle: saline 101 % of control | dose: 12.5 mg/kg/injection, schedule: Q04DX003 (ip), vehicle: Klucel (hydroxypropylcellulose) (HPC) 96 % of control | [3] 95 % of control | dose: 25.0 mg/kg/injection, schedule: Q04DX003 (ip), vehicle: Klucel (hydroxypropylcellulose) (HPC) 106 % of control | [4] 92 % of control | dose: 50.0 mg/kg/injection, schedule: Q04DX003 (ip), vehicle: Klucel (hydroxypropylcellulose) (HPC) 96 % of control | dose: 75.0 mg/kg/injection, schedule: Q01DX009 (ip), vehicle: Klucel (hydroxypropylcellulose) (HPC) 98 % of control | dose: 75.0 mg/kg/injection, schedule: Q01DX009 (ip), vehicle: saline 88 % of control | dose: 115.0 mg/kg/injection, schedule: Q01DX009 (ip), vehicle: Klucel (hydroxypropylcellulose) (HPC) 97 % of control | dose: 170.0 mg/kg/injection, schedule: Q01DX009 (ip), vehicle: Klucel (hydroxypropylcellulose) (HPC) 96 % of control | dose: 170.0 mg/kg/injection, schedule: Q01DX009 (ip), vehicle: saline 89 % of control

CCCCCCCCCCCCCc1nc(N)nc(N2CCOCC2)n1
inactive: [5] 92 % of control | [6] 95 % of control | dose: 400.0 mg/kg/injection, schedule: Q04DX002 (ip), vehicle: Klucel (hydroxypropylcellulose) (HPC) 92 % of control

CCSc1ccc2c(cc1=O)C(NC(C)=O)CCc1cc(OC)c(OC)c(OC)c1-2 (configuration not stated)
inactive: dose: 25.0 mg/kg/injection, schedule: Q04DX002 (ip), vehicle: Klucel (hydroxypropylcellulose) (HPC) 105 % of control | [7] 102 % of control

Cc1ccccc1S(=O)(=O)NSc1ccccc1[N+](=O)[O-]
inactive: dose: 75.0 mg/kg/injection, schedule: Q01DX001 (ip), vehicle: other 101 % of control | dose: 150.0 mg/kg/injection, schedule: Q01DX001 (ip), vehicle: other 95 % of control | dose: 300.0 mg/kg/injection, schedule: Q01DX001 (ip), vehicle: other 95 % of control

O=C(COc1ccc(Cl)c(Cl)c1)NCCc1ccncc1
inactive: [7] 103 % of control | [5] 118 % of control | [6] 111 % of control

CCN(CC)c1ccc(N=Nc2ccc(S(=O)(=O)O)cc2)cc1
inactive: [3] 97 % of control | [4] 91 % of control | [1] 88 % of control | [8] 100 % of control

C=CCNC(=S)Nc1c(C)cc(C)cc1C
inactive: dose: 12.5 mg/kg/injection, schedule: Q01DX009 (ip), vehicle: Klucel (hydroxypropylcellulose) (HPC) 102 % of control | [9] 97 % of control | [10] 103 % of control

CC(C)c1ccc(NC(=O)c2ccc(Cl)c(Cl)c2)cc1
inactive: [11] 98 % of control | dose: 200.0 mg/kg/injection, schedule: Q01DX009 (ip), vehicle: Klucel (hydroxypropylcellulose) (HPC) 91 % of control | dose: 400.0 mg/kg/injection, schedule: Q01DX009 (ip), vehicle: Klucel (hydroxypropylcellulose) (HPC) 93 % of control

O=C/C=C/c1cccc([N+](=O)[O-])c1
inactive: dose: 50.0 mg/kg/injection, schedule: Q01DX001 (ip), vehicle: saline 102 % of control | [1] 107 % of control | [2] 111 % of control

O/N=c1/cc(-c2cccs2)ss1
inactive: [4] 86 % of control | [8] 86 % of control | dose: 100.0 mg/kg/injection, schedule: Q04DX003 (ip), vehicle: saline 87 % of control | dose: 200.0 mg/kg/injection, schedule: Q01DX009 (ip), vehicle: saline 98 % of control | dose: 200.0 mg/kg/injection, schedule: Q04DX003 (ip), vehicle: saline 95 % of control | dose: 400.0 mg/kg/injection, schedule: Q04DX003 (ip), vehicle: saline 95 % of control

Cc1ccc(N=C2C=CC(=O)O2)cc1
inactive: [12] 98 % of control | [13] 100 % of control | [14] 95 % of control

COc1ccc(C)cc1NC(=S)NC(=O)C(C)Oc1ccccc1 (configuration not stated)
inactive: [9] 95 % of control | [10] 93 % of control | [11] 101 % of control and 91 % of control | [15] 97 % of control | [16] 103 % of control | dose: 400.0 mg/kg/injection, schedule: Q04DX003 (ip), vehicle: Klucel (hydroxypropylcellulose) (HPC) 97 % of control

O=[N+]([O-])OCc1c(Cl)nc(Cl)c(Cl)c1Cl
inactive: dose: 20.0 mg/kg/injection, schedule: Q01DX009 (ip), vehicle: Klucel (hydroxypropylcellulose) (HPC) 103 % of control | dose: 40.0 mg/kg/injection, schedule: Q01DX009 (ip), vehicle: Klucel (hydroxypropylcellulose) (HPC) 92 % of control | [15] 92 % of control | [16] 100 % of control

COc1nsc(N)n1
inactive: dose: 100.0 mg/kg/injection, schedule: Q01DX001 (ip), vehicle: saline with Tween-80 100 % of control | dose: 200.0 mg/kg/injection, schedule: Q01DX001 (ip), vehicle: saline with Tween-80 104 % of control | dose: 400.0 mg/kg/injection, schedule: Q01DX001 (ip), vehicle: saline with Tween-80 91 % of control

Nc1ccc2c(c1)C(=O)CCCC2
inactive: dose: 100.0 mg/kg/injection, schedule: Q01DX001 (ip), vehicle: carboxymethylcellulose (CMC) 102 % of control | dose: 200.0 mg/kg/injection, schedule: Q01DX001 (ip), vehicle: carboxymethylcellulose (CMC) 104 % of control | dose: 400.0 mg/kg/injection, schedule: Q01DX001 (ip), vehicle: carboxymethylcellulose (CMC) 98 % of control

COc1ccc([N+](=O)[O-])cc1C(=O)O
inactive: dose: 75.0 mg/kg/injection, schedule: Q01DX001 (ip), vehicle: saline 104 % of control | dose: 75.0 mg/kg/injection, schedule: Q04DX003 (ip), vehicle: acetone 100 % of control | dose: 150.0 mg/kg/injection, schedule: Q01DX001 (ip), vehicle: saline 95 % of control | dose: 150.0 mg/kg/injection, schedule: Q04DX003 (ip), vehicle: acetone 89 % of control | dose: 300.0 mg/kg/injection, schedule: Q01DX001 (ip), vehicle: saline 104 % of control | dose: 300.0 mg/kg/injection, schedule: Q04DX003 (ip), vehicle: acetone 93 % of control

COCCNP(=S)(OC)OC
inactive: [12] 93 % of control | [17] 101 % of control | [13] 95 % of control | [18] 106 % of control | [14] 101 % of control | dose: 400.0 mg/kg/injection, schedule: Q04DX003 (ip), vehicle: saline with Tween-80 92 % of control

O=C1CCC(C(=O)O)N1 (configuration not stated)
inactive: dose: 50.0 mg/kg/injection, schedule: Q01DX009 (ip), vehicle: saline with Tween-80 94 % of control | [12] 94 % of control | [17] 97 % of control | [13] 86 % of control | [18] 91 % of control
